Results on 36 compounds are retold here after ChEMBL document CHEMBL1201862, “PubChem BioAssay data set” (2004).

Active and inactive are the calls of the source. A value given as a limit tells only on which side of the number the result lay.

Test [1] concerns the target T1, Heat shock factor protein 1 (Mus musculus, UniProt P38532).
T1 sequence (P38532 whole entry): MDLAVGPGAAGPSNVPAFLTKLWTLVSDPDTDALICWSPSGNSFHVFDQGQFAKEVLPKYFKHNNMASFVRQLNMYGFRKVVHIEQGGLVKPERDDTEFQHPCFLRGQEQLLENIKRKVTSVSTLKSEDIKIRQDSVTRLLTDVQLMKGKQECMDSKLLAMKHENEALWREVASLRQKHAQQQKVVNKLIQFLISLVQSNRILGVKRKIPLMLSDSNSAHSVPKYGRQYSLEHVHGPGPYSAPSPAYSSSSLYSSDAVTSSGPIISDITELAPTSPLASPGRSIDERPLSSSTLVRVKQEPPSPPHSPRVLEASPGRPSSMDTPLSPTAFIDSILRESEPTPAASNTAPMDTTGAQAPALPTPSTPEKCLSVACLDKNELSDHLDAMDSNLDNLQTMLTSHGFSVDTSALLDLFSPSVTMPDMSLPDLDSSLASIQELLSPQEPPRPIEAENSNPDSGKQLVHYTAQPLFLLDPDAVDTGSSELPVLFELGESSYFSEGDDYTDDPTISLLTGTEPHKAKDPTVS
Kind of test: enhancement of HSF1-driven luciferase signal – cell-based, NIH3T3, luminescence, dose retest, confirmation (AID 435004).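 Also: stress induced by proteasome inhibitor MG132 added 30 min after compound; luciferase reporter driven by HSF1 response element in NIH3T3 cells; actives raise luminescence as potentiators of the MG132 stress response.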 Format: functional.

Test [2] in a line: Trypanosoma cruzi growth suppression in host cells – NIH3T3 host cells, beta-gal luminescence, confirmation (AID 2044).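 Also: intracellular parasites grown in NIH/3T3 mouse fibroblasts as host cells; luminescent beta-galactosidase reporter signal from transgenic T. cruzi replicating inside host cells; inhibitors lower the luminescence signal.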 Format: functional, cell-based.
A short description of test [3]: NIH3T3 cell viability loss – ATP luminescence, mouse fibroblasts, counter-screen, dose response (AID 2010).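 Also: cells exposed to compound for about 90 hours before reading.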 In kind it is functional, cell-based. A general note: The purpose of a counterscreen is to sort out artefacts and off-target activity.
For test [4], the target named is Luciferin 4-monooxygenase (Photinus pyralis, UniProt P08659). Kind of test: inhibition of purified Photinus pyralis luciferase – biochemical, luminescence, dose response (AID 1891).
Test [5] is described as follows: Luminescence Cell-Based Dose Confirmation HTS to Identify Inhibitors of Platelet Dense Granule Release. [Related pubchem assays: 1663 (Primary HTS), 1678 (Summary of Project)]. In kind it is functional.
Test [6] concerns the target T2, Calpain-2 catalytic subunit (Sus scrofa, UniProt P43367).
T2 sequence (P43367 whole entry): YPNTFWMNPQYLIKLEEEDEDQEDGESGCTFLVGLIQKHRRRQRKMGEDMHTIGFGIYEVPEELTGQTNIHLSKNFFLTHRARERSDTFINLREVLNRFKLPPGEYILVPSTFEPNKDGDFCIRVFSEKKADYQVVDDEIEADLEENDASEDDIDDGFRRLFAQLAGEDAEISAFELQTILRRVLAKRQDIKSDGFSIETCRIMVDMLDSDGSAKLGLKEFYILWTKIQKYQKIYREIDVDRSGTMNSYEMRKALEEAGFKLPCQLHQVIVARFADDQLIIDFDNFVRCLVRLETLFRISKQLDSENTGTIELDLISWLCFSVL
Put plainly: m-calpain protease blockers, concentration series – biochemical, fluorogenic peptide substrate, dose response (AID 1420). In kind it is functional.

In test [7] the target is T3, Fatty acid synthase (Homo sapiens, UniProt P49327). Kind of test: inhibition of human FAS-TE enzyme activity – biochemical, endpoint fluorescence intensity, uHTS hits, dose response (AID 624327).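 Also: fluorescence from hydrolysis of an O-methyl fluorescein acyl ester substrate by the enzyme.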 In kind it is functional.
Test [8] deals with T3, Fatty acid synthase. Put plainly: inhibition of human FAS-TE enzyme activity – biochemical, kinetic fluorescence intensity, dose response (AID 624326).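 Also: rate of fluorescence rise from hydrolysis of a fluorogenic O-methyl fluorescein ester substrate.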 Format: functional.
Test [9] can be described thus: Luminescence Cell-Based Dose Retest to Confirm Inhibitors of Cancer Stem Cells. [Related pubchem assays (depositor defined):AID2717, AID2721]. Format: functional. The settings on record: Homo sapiens.
The nature of test [10]: Luminescence Cell-Based Dose Response HTS to Identify Activators of Luciferase Translation or Activity in H4 […] Cells. [Related pubchem assays: 1829 (Project Summary), 1814 (Primary HTS)]. Format: functional.
Test [11] can be described thus: cells. In kind it is functional, cell-based.
For test [12], the system named is H4. Put plainly: Luminescence Cell-Based Dose Response HTS to Identify Activators of 5'UTR Stem-Loop Driven Prion Protein mRNA Translation in H4 Neuroglioblastoma Cells. [Related pubchem assays: 1829 (Project Summary), 1814 (Primary HTS)]. In kind it is functional. The settings on record: Homo sapiens.
Test [13] can be described thus: cells. In kind it is functional, cell-based. This is another data set of the same source.
Test [14] has as its system INS1. Kind of test: INS-1E survival protection against cytokine death – cell-based, luminescence, retest, dose response (AID 449756).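 Also: cell death triggered by IL-1 beta plus TNF-alpha plus IFN-gamma mixture; protective hits raise ATP signal compared with cytokine alone wells.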 Format: functional. To be noted: Rattus norvegicus.
Test [15] has as its target T4, Protein skinhead-1 (Caenorhabditis elegans, UniProt P34707).
T4 sequence (P34707 whole entry): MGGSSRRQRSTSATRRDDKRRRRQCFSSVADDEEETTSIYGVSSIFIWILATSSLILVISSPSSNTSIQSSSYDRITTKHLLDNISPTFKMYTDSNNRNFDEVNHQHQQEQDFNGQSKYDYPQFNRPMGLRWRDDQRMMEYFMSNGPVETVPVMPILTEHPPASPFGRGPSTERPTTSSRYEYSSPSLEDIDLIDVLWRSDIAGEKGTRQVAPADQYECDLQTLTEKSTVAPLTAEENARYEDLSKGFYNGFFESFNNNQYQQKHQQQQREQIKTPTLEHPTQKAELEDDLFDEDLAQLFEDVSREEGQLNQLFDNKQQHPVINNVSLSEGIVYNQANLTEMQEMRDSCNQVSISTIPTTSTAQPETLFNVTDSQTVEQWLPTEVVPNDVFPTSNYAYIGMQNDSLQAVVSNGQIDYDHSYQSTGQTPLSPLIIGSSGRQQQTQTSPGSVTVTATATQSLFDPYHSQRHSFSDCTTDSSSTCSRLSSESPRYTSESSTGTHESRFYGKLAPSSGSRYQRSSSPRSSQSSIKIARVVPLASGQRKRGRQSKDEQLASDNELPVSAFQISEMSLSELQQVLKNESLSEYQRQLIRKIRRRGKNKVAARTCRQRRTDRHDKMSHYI
Format: functional.

T3 sequence (P49327 whole entry): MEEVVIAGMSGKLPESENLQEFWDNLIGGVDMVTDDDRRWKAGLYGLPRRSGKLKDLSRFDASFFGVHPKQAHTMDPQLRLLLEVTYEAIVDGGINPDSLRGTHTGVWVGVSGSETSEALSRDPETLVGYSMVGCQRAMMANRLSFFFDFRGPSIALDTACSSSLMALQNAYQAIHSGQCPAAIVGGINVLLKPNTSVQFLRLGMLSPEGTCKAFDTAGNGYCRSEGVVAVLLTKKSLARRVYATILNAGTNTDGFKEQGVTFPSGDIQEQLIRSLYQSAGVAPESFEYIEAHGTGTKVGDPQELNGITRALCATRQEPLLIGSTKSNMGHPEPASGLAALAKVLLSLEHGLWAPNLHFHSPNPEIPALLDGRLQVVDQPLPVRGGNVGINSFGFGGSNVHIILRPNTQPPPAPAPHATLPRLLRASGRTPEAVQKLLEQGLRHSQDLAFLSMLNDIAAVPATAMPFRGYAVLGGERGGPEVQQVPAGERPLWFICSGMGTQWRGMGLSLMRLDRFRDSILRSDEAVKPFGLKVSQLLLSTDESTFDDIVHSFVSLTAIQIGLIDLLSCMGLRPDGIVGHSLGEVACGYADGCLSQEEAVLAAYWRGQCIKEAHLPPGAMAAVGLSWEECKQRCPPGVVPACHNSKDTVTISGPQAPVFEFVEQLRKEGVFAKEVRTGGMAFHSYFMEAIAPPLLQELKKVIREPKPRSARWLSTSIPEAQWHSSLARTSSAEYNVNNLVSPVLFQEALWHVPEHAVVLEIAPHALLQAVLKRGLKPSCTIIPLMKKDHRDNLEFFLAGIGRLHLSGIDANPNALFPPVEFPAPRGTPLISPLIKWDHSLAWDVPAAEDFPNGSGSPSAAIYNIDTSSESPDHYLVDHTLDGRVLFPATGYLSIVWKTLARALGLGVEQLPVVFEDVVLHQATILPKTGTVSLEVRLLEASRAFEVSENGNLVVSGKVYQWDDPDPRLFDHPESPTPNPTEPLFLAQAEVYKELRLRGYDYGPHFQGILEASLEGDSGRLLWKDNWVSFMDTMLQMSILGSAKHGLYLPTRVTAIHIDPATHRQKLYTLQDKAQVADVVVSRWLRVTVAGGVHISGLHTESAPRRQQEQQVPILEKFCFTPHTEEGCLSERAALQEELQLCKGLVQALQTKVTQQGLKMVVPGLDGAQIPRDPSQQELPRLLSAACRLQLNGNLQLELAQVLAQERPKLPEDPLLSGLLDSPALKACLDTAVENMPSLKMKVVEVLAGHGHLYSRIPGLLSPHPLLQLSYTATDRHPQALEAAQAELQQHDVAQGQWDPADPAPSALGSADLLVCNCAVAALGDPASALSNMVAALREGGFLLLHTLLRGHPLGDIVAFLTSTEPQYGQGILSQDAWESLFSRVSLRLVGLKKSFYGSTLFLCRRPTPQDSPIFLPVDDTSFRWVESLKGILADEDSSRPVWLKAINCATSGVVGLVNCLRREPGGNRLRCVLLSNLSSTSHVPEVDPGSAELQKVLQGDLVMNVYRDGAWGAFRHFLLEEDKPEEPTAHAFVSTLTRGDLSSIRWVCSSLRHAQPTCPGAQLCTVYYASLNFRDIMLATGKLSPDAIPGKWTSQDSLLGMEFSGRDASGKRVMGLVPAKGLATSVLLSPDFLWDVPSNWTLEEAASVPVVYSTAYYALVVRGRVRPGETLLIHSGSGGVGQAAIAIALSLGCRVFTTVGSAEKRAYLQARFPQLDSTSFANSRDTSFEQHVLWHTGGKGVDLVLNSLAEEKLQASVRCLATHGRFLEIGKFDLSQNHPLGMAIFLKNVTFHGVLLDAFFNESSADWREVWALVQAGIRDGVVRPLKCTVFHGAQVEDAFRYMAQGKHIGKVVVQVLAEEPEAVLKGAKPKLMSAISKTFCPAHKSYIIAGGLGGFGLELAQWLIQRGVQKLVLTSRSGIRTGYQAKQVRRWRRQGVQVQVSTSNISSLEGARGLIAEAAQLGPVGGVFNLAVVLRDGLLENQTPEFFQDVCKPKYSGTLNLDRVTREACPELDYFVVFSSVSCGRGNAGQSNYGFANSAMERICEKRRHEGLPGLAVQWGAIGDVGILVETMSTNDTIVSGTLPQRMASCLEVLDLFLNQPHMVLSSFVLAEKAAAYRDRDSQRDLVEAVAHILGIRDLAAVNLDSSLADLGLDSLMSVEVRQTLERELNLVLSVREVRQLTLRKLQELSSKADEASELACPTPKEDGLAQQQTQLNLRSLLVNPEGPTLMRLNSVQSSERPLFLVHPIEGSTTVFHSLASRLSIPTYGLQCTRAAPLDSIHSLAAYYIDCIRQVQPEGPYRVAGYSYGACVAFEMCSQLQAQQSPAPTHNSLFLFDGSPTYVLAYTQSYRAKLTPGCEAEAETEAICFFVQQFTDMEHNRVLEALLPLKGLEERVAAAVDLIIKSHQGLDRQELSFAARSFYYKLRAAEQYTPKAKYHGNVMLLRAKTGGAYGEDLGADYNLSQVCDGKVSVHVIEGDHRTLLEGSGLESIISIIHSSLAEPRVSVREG
Chain of Luciferin 4-monooxygenase (P08659 whole entry): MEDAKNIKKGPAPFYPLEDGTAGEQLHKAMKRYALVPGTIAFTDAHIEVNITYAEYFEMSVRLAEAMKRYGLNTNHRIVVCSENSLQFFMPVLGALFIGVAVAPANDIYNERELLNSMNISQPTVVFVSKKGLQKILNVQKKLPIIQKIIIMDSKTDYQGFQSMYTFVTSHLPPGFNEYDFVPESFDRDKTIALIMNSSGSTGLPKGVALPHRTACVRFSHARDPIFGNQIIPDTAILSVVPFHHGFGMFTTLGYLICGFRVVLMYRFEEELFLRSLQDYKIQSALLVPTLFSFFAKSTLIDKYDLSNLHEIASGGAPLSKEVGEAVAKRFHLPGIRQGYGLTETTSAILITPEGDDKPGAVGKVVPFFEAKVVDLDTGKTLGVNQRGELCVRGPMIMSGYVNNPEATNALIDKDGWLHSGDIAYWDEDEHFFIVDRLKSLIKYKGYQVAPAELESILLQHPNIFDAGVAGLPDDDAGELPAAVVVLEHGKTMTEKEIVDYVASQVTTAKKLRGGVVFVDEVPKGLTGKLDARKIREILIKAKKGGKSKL

In general, EC50 refers to the concentration needed to bring the measured effect to its halfway point. In the case of `C=C1CCC[C@]2(C)C[C@H]3OC(=O)C(CNC(CC)CO)[C@H]3CC12` (some centres undefined), the EC50 in [1] was > 260 µM (inactive).

For the compound `c1ccc(CCc2ccncc2)cc1`, the results for the EC50 in [2], in test [3] and in test [1] were 1.52 µM (active), > 60 µM (not active) and > 260 µM (inactive), respectively.

`COCCNC(=S)N/N=C/c1ccc(N2CCOCC2)cc1`: the EC50 in test [1] is > 260 µM (inactive).

For `COC(=O)c1cccc(C(=O)N2CCCC(C(=O)c3ccccc3OC)C2)c1` (centres undefined), the EC50 in test [1] is > 260 µM (inactive).

The term IC50 denotes the concentration needed to halve the response being measured. With `CCCCC(=O)OCC(=O)c1[nH]c(C)c(C(C)=O)c1C`, the 50% effective concentration (EC50) in test [4] is > 112 µM (not active); in test [5], 816 nM (active). Besides, the IC50 in test [6] is 21.5 µM (not active).

For `O=C(COC(=O)c1cc([N+](=O)[O-])ccc1N1CCOCC1)Nc1c(Cl)cccc1C(F)(F)F`, the values for the IC50 in test [7] and in [8] were 8.05 µM (active) and 8.39 µM (active), respectively.

Regarding `O=C(NNS(=O)(=O)c1ccc([N+](=O)[O-])cc1)c1ccc([N+](=O)[O-])cc1`, the IC50 in [7] was 4.95 µM (active); in [8], 4.24 µM (active).

As to `C=CCSc1nnc(-c2ccc([N+](=O)[O-])cc2)o1`, the IC50 in [6] is 34.3 µM (not active).

Consider `C[C@@H]1CN([C@H](C)CO)C(=O)c2cccc(NC(=O)NC3CCCCC3)c2O[C@@H]1CN(C)C(=O)Nc1ccc(C(F)(F)F)cc1`, for which the figures for the IC50 in [7] and in test [8] were 2.09 µM (active) and 2.26 µM (active), respectively.

With `O=C(O)c1cccnc1Sc1ccccc1`, the EC50 in [1] is > 260 µM (inactive).

For the compound `COc1c(Br)cc(Br)cc1C(=O)O`, the EC50 in test [1] was > 260 µM (inactive).

One may read the AC50 as the concentration at which the activity in the assay is half-maximal. As for `CCOC(=O)N1CCN(c2ccc(C(=O)c3cccc(F)c3)cc2)CC1`, the concentration for half-maximal inhibition (IC50) in test [6] is listed as 14.3 µM (not active). Also, the AC50 in [9] is 3.36 µM (active).

As to `ON=C1c2cc(OCCN3CCCCC3)ccc2-c2ccc(OCCN3CCCCC3)cc21`, the 50% effective concentration (EC50) in [10] was > 120 µM (not active); in test [11], > 350 µM (not active); in test [12] it was > 120 µM (not active); in test [2] it was 1.43 µM (active); in test [13], > 350 µM (not active); in test [3], > 60 µM (not active).

For `COc1ccc(/C=C/C(=O)c2ccc([N+](=O)[O-])o2)cc1`, the AC50 is 1.31 µM (active) in [9] and 6.75 µM (active) in test [14].

Turning to `COc1ccc(Nc2nc(-c3ccccc3O)nc3ccccc23)cc1`, the AC50 in test [9] was 2.75 µM (active).

As to `Cc1nc2scc(-c3ccccc3)c2c(=O)o1`, the half-maximal inhibitory concentration (IC50) in test [7] was 5.75 µM (active); in test [8], 80 µM (inactive).

In the case of `Cc1ccc(NC(=O)Nc2cccc(F)c2)nc1`, the EC50 in [11] is > 350 µM (not active); in test [13] it was 11.8 µM (active).

On to `CC1CC(=O)c2cnc(NCC3CCCO3)nc2C1` (centres undefined), for which the 50% inhibitory concentration (IC50) in test [6] is listed as 6.33 µM (not active).

For the compound `CCc1nnc(S)n1/N=C/c1ccc(-c2ccc(Br)cc2)o1`, the half-maximal effective concentration (EC50) in test [11] and in test [13] was > 350 µM (not active) in each case.

As for `Cc1ccccc1CCN(C(=O)Cn1nnc2ccccc21)C(C(=O)NCC1CCCO1)c1nc2ccccc2n1C` (centres undefined), the half-maximal inhibitory concentration (IC50) in [6] is listed as 29.6 µM (not active).

Take `CC(C=Cc1ccccc1)=NNS(=O)(=O)c1ccc([N+](=O)[O-])cc1`: the IC50 in test [7] was 9.36 µM (active); in test [8], 6.23 µM (active).

As for `COc1ccc(C(=O)N2CCCCCC2)cc1S(=O)(=O)N1CCOCC1`, the concentration giving a half-maximal response (EC50) in [11] and in test [13] was > 350 µM (not active) throughout.

Consider `Nc1ccc(C(=O)Nc2ccc3[nH]c(-c4ccncc4)nc3c2)cc1`, for which the EC50 in [11] was 49.5 µM (active); in test [13] it was > 350 µM (not active).

On to `Cc1nn(-c2ccc(F)cc2)c2sc(C(=O)N3CCCCCC3)cc12`, for which the results for the IC50 in test [6] and in test [15] were > 50 µM (not active) and > 100 µM (inactive), respectively.

In the case of `CCn1c(=O)c(C(=O)NCc2ccccc2OC)c(O)c2ccccc21`, the concentration at half-maximal activity (AC50) in test [9] was 1.26 µM (active).

On to `COc1ccc(CCNC(=O)COC(=O)CCC(=O)c2ccc(F)cc2)cc1OC`, for which the half-maximal effective concentration (EC50) in test [11] and in test [13] was > 350 µM (not active) in each case.

As to `COc1cccc(C(=O)C2CCCN(Cc3ccc4nsnc4c3)C2)c1` (centres undefined), the EC50 in test [11] and in test [13] was > 350 µM (not active) in each case.

As to `O=S(=O)(c1ccc(Cl)cc1)N1CCCC(c2nc(-c3ccc(F)cc3)no2)C1` (centres undefined), the IC50 was 5.59 µM (active) in [7] and 6.27 µM (active) in test [8].

As to `FC(F)(F)c1cccc(N2CCN(C(S)=NC3CCCC3)CC2)c1`, the IC50 in test [6] is listed as 7.79 µM (not active).

On to `Cc1ccc(C(=O)N/C(=C\c2cn(S(=O)(=O)N(C)C)c3ccccc23)C(=O)N2CCCC2)cc1`, for which the 50% inhibitory concentration (IC50) in test [7] is 1.58 µM (active); in test [8] it was 1.23 µM (active).

Consider `Cc1ccc(NC(=O)Cn2cnc3c(=O)n(C)c(=O)n(C)c32)c(C)c1`, for which the EC50 in [11] and in test [13] was > 350 µM (not active) each time.

For `O=C(CN1CCN(S(=O)(=O)c2ccc(Cl)c(C(F)(F)F)c2)CC1)NC(=O)NC1CCCCC1`, the IC50 in test [7] is 3.5 µM (active); in test [8], 37.1 µM (inactive).

As for `COC(=O)N1C(=O)[C@](CC(C)C)(c2ccccc2)N1C(=O)OC`, the IC50 is 0.544 µM (active) in test [7] and 0.385 µM (active) in [8].

Regarding `CC(C)Cn1c(SCC(=O)NC(=O)Nc2ccc3c(c2)OCCO3)nc2ccccc2c1=O`, the IC50 in test [6] is > 50 µM (not active).

Take `COc1ccc(C2=CC(=O)CC(c3ccc(F)cc3)C2)cn1` (centres undefined): in test [1], the EC50 was > 260 µM (inactive).

On to `COc1ccc(C(=O)NCC(=O)OCC(=O)c2ccc3c(c2)NC(=O)CO3)cc1`, for which the EC50 in [1] was > 260 µM (inactive).
